# Data taken from US20240041042A1, “1-(PYRIDYL)-5-AZINYLPYRAZOLE DERIVATIVES, AND THEIR USE FOR CONTROL OF UNDESIRED PLANT GROWTH” (Bayer Aktiengesellschaft, priority 2020, published 2024).
# Like-named read-outs stand apart in the source and are kept apart here.
# Columns and labels:
# Format in all cases: in vivo
# [1] = test system: Amaranthus retroflexus (AMARE); assay: Post-emergence herbicidal action against AMARE
# Method in brief: (§1)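 Post-emergence greenhouse spray, one-leaf stage, 600 l/ha water plus 0.5% additive; WP or EC formulations; application rates 320 g/ha or lower. Visual % damage vs untreated controls at ~3 weeks.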
# [2] = test system: Digitaria sanguinalis (DIGSA); assay: Pre-emergence herbicidal action against DIGSA
# Method in brief: (§2)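 Read-out is visual percent damage relative to untreated pots, with 100% meaning dead plants and 0% meaning no difference, assessed roughly three weeks after treatment. Compounds were applied pre-emergence to the covering soil at up to 320 g/ha.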
# Avena fatua (AVEFA) [3] = assay: Pre-emergence herbicidal action against AVEFA; details: visual scoring after about 3 weeks vs untreated controls
# Method in brief: as §2
# [4] = test system: Echinochloa crus-galli (ECHCG); assay: Post-emergence herbicidal action against ECHCG
# Method in brief: as §1
# Avena fatua (AVEFA) [5] = assay: Post-emergence herbicidal action against AVEFA; details: visual rating about 3 weeks after treatment
# Method in brief: as §1
# Zea mays (ZEAMX) [6] = details: pre-emergence, 80 g/ha, crop plant compatibility, in comparison to untreated controls
# Method in brief: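 Scoring: visual, % of untreated control, about 3 weeks after a pre-emergence application to the soil surface. Application used WP or EC formulations diluted in water with 0.5% additive at 600 l/ha; dosage levels are marked by suffixes a, b and c.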
# Lolium rigidum (LOLRI) [7] = assay: Pre-emergence herbicidal action against LOLRI
# Method in brief: as §2
# [8] = test system: Matricaria inodora (MATIN); assay: Pre-emergence herbicidal action against MATIN; details: dosage 320 g/ha
# Method in brief: as §2
# Oryza sativa (ORYSA) = details: crop plant compatibility, effect in comparison to untreated controls
# Method in brief: (§3)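 Percent effect on the crop was judged by eye against untreated controls, where 0% means like control and 100% means dead plants. Plants had been sprayed post-emergence at the one-leaf stage and then kept under optimum greenhouse conditions for about 3 weeks.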
# Viola tricolor (VIOTR) [9] = assay: Post-emergence herbicidal action against VIOTR
# Method in brief: as §1
# [10] = test system: Alopecurus myosuroides (ALOMY); assay: Post-emergence herbicidal action against ALOMY; details: visual rating about 3 weeks after treatment vs untreated controls (100% = plants have died, 0% = like control plants)
# Method in brief: as §1
# Viola tricolor (VIOTR) [11] = assay: Pre-emergence herbicidal action against VIOTR
# Method in brief: as §2
# [12] = test system: Echinochloa crus-galli (ECHCG); assay: Pre-emergence herbicidal action against ECHCG; details: dosage 320 g/ha
# Method in brief: as §2
# [13] = test system: Pharbitis purpurea (PHBPU); assay: Pre-emergence herbicidal action against PHBPU; details: dosage 320 g/ha
# Method in brief: as §2
# Lolium rigidum (LOLRI) [14] = assay: Post-emergence herbicidal action against LOLRI
# Method in brief: as §1
# [15] = test system: Polygonum convolvulus (POLCO); assay: Post-emergence herbicidal action against POLCO
# Method in brief: as §1
# [16] = test system: Digitaria sanguinalis (DIGSA); assay: Post-emergence herbicidal action against DIGSA; details: visual rating about 3 weeks after treatment
# Method in brief: as §1
# [17] = test system: Polygonum convolvulus (POLCO); assay: Pre-emergence herbicidal action against POLCO; details: dosage 320 g/ha
# Method in brief: as §2
# Setaria viridis (SETVI) [18] = assay: Post-emergence herbicidal action against SETVI; details: dosage 320 g/ha
# Method in brief: as §1
# [19] = test system: Matricaria inodora (MATIN); assay: Post-emergence herbicidal action against MATIN; details: dosage 320 g/ha
# Method in brief: as §1
# [20] = test system: Pharbitis purpurea (PHBPU); assay: Post-emergence herbicidal action against PHBPU
# Method in brief: as §1
# [21] = test system: Amaranthus retroflexus (AMARE); assay: Pre-emergence herbicidal action against AMARE; details: visual scoring after about 3 weeks vs untreated controls
# Method in brief: as §2
# [22] = test system: Alopecurus myosuroides (ALOMY); assay: Pre-emergence herbicidal action against ALOMY; details: scored visually after about 3 weeks, 100% = plants have died
# Method in brief: as §2
# [23] = test system: Verconica persica (VERPE); assay: Pre-emergence herbicidal action against VERPE; details: dosage 320 g/ha
# Method in brief: as §2
# Setaria viridis (SETVI) [24] = assay: Pre-emergence herbicidal action against SETVI; details: dosage 320 g/ha
# Method in brief: as §2
# [25] = test system: Verconica persica (VERPE); assay: Post-emergence herbicidal action against VERPE
# Method in brief: as §1
# Zea mays (ZEAMX) [26] = details: crop plant compatibility, 80 g/ha, effect vs untreated controls
# Method in brief: as §3
# [27] = test system: Triticum aestivum (TRZAS); details: crop plant compatibility, 80 g/ha, effect vs untreated controls
# Method in brief: as §3
# [28] = 320 g/ha, visual rating about 3 weeks after treatment
# [29] = 80 g/ha, visual scoring after about 3 weeks vs untreated controls
Pre-emergence action against ZEAMX in % (Zea mays (ZEAMX) [6]) [%],Post-emergence action against ORYSA in % (Oryza sativa (ORYSA); 80 g/ha) [%],SMILES,"Post-emergence action against AMARE in % [1, 28] [%]","Pre-emergence action against DIGSA in % [2, 29] [%]",Pre-emergence action against DIGSA in % ([2]; dosage 320 g/ha) [%],Pre-emergence action against AVEFA in % (Avena fatua (AVEFA) [3]; 320 g/ha) [%],Post-emergence action against ECHCG in % ([4]; dosage 320 g/ha) [%],Pre-emergence action against LOLRI in % (Lolium rigidum (LOLRI) [7]; dosage 320 g/ha) [%],Pre-emergence action against MATIN in % [8] [%],Post-emergence action against VIOTR in % (Viola tricolor (VIOTR) [9]; 80 g/ha) [%],Post-emergence action against VIOTR in % (Viola tricolor (VIOTR) [9]; 320 g/ha) [%],Post-emergence action against ALOMY in % ([10]; 320 g/ha) [%],Pre-emergence action against ECHCG in % [12] [%],Pre-emergence action against PHBPU in % [13] [%],Post-emergence action against LOLRI in % (Lolium rigidum (LOLRI) [14]; dosage 320 g/ha) [%],Post-emergence action against POLCO in % ([15]; dosage 80 g/ha) [%],Post-emergence action against POLCO in % ([15]; dosage 320 g/ha) [%],Post-emergence action against DIGSA in % ([16]; 320 g/ha) [%],Pre-emergence action against POLCO in % [17] [%],Pre-emergence action against AMARE in % ([21]; 320 g/ha) [%],other results
20,0,COC(=O)CCOC(=O)C(C)Oc1nn(-c2ccccn2)c(-c2ccc(F)nc2)c1C(F)(F)F (stereo not drawn) [Example I-293],80,80,100,90,80,100,80,80,80,90,90,80,80,80,80,80,80,100,"Pre-emergence action against AVEFA in % (Avena fatua (AVEFA) [3]; 80 g/ha): 80%; Post-emergence action against AVEFA in % (Avena fatua (AVEFA) [5]; 80 g/ha): 80%; Post-emergence action against AVEFA in % (Avena fatua (AVEFA) [5]; 320 g/ha): 90%; Pre-emergence action against LOLRI in % (Lolium rigidum (LOLRI) [7]; dosage 80 g/ha): 100%; Post-emergence action against ALOMY in % ([10]; 80 g/ha): 90%; Pre-emergence action against VIOTR in % (Viola tricolor (VIOTR) [11]; 320 g/ha, Viola tricolor): 100%; Pre-emergence action against VIOTR in % (Viola tricolor (VIOTR) [11]; dosage 80 g/ha): 80%; Post-emergence action against LOLRI in % (Lolium rigidum (LOLRI) [14]; dosage 80 g/ha): 80%; Post-emergence action against SETVI in % (Setaria viridis (SETVI) [18]): 80%; Post-emergence action against MATIN in % [19]: 80%; Post-emergence action against PHBPU in % ([20]; dosage 320 g/ha): 80%; Pre-emergence action against ALOMY ([22]; 80 g/ha): 90%; Pre-emergence action against ALOMY ([22]; 320 g/ha): 100%"
20,10,COC(=O)CCOC(=O)COc1nn(-c2ccccn2)c(-c2ccc(F)nc2)c1Br [Example I-247],80,100,100,80,80,100,90,80,80,80,100,80,80,80,80,80,90,100,"Pre-emergence action against VERPE in % [23]: 90%; Post-emergence action against AMARE in % ([1]; 80 g/ha, visual rating about 3 weeks after treatment vs untreated controls (100% = plants have died, 0% = like control plants)): 80%; Post-emergence action against ECHCG in % ([4]; dosage 80 g/ha): 80%; Post-emergence action against DIGSA in % ([16]; 80 g/ha): 80%; Post-emergence action against SETVI in % (Setaria viridis (SETVI) [18]): 80%; Pre-emergence action against SETVI in % (Setaria viridis (SETVI) [24]): 100%; Post-emergence action against PHBPU in % ([20]; dosage 80 g/ha): 90%; Post-emergence action against PHBPU in % ([20]; dosage 320 g/ha): 90%; Post-emergence action against VERPE in % ([25]; 320 g/ha, VERPE): 80%; Post-emergence action against VERPE in % ([25]; dosage 80 g/ha): 80%; Pre-emergence action against AMARE in % ([21]; 80 g/ha): 80%; Pre-emergence action against ALOMY ([22]; 80 g/ha): 80%; Pre-emergence action against ALOMY ([22]; 320 g/ha): 100%"
10,0,COC(=O)CCOC(=O)COc1nn(-c2ccccn2)c(-c2ccc(Cl)nc2)c1Cl [Example I-243],80,,80,,,,,,80,,,,,,,,,90,"Post-emergence action against ZEAMX in % (Zea mays (ZEAMX) [26]): 0%; Post-emergence action against ORYSA in % (Oryza sativa (ORYSA); 320 g/ha): 10%; Post-emergence action against TRZAS in % [27]: 20%; Post-emergence action against MATIN in % [19]: 80%; Post-emergence action against VERPE in % ([25]; 320 g/ha, VERPE): 80%; Pre-emergence action against AMARE in % ([21]; 80 g/ha): 80%"
